In patent US20160095843A1, “PYRAZOLOPYRROLIDINE DERIVATIVES AND THEIR USE IN THE TREATMENT OF DISEASE” (NOVARTIS AG, priority 2013, published 2016) one finds GI50 data, which are given here for 16 molecules.

The test system of experiment [1] is MV-4-11 cells. Put plainly: Cell growth inhibition assay (CellTiter-Glo), MV-4-11. In kind it is cell-based. The following applies: Homo sapiens, MV4-11. The method, boiled down:
(§1)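 Leukemia lines grown in their own media were exposed for 4 days at 37° C. to 3-fold serial dilutions from 10 μM (0.1% DMSO). Viability by CellTiter-Glo ATP luminescence, corrected for background and day-0 plate; IC50 and TGI from four-parameter fit against vehicle (100%) and medium (−100%).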
In general terms: ATP-based viability assays read luminescence as a measure of living cells.

Experiment [2] relates to THP-1 cells. Put plainly: Cell growth inhibition assay (CellTiter-Glo), THP-1. The conditions noted are these: Homo sapiens. In kind it is cell-based. In short, it runs like this:
as §1

Experiment [3] has as its system K-562 cells. Nature of the experiment: Cell growth inhibition assay (CellTiter-Glo), K-562. In kind it is cell-based, human. The following applies: Homo sapiens, K562. In short, it runs like this: as §1

Turning to `CCc1nn(CCOC)c2c1C(c1ccc(Cl)cc1)N(c1cc(C)c3nnc(C)n3c1)C2=O` (stereo not drawn) [Example 87, 4-(4-chlorophenyl)-5-(3,8-dimethyl-[1,2,4]triazolo[4,3-a]pyridin-6-yl)-3-ethyl-1-(2-methoxyethyl)-4,5-dihydropyrrolo-[3,4-c]pyrazol-6(1H)-one], the figures for the GI50 in experiment [1], in experiment [2] and in experiment [3] were 16.4 nM, 23.5 nM and 128 nM, respectively.
On to `Cc1cc(N2C(=O)c3c(c(C4CC4)nn3C)C2c2ccc(Cl)cc2)cn2c(C)nnc12` (racemic) [Example 129, 4-(4-chlorophenyl)-3-cyclopropyl-5-(3,8-dimethyl-[1,2,4]triazolo[4,3-a]pyridin-6-yl)-1-methyl-4,5-dihydropyrrolo-[3,4-c]pyrazol-6(1H)-one], for which the GI50 stood at 14.5 nM in experiment [1], 22.6 nM in experiment [2] and 98.9 nM in experiment [3].
`COc1ncccc1-n1nc(C)c2c1C(=O)N(c1cc(C)c3nnc(C)n3n1)C2c1ccc(Cl)cc1` (stereo not drawn) [Example 111, 4-(4-chlorophenyl)-5-(3,8-dimethyl-[1,2,4]triazolo[4,3-b]pyridazin-6-yl)-1-(2-methoxypyridin-3-yl)-3-methyl-4,5-dihydropyrrolo-[3,4-c]pyrazol-6(1H)-one]: the values for the GI50 in experiment [1], in experiment [2] and in experiment [3] were 16.2 nM, 22 nM and 177 nM, respectively.
Turning to `Cc1c2c(nn1C)C(=O)N(c1cc(Cl)c(=O)n(C)c1)[C@@H]2c1ccc(Cl)cc1` [Example 7, (R)-5-(5-chloro-1-methyl-6-oxo-1,6-dihydropyridin-3-yl)-4-(4-chlorophenyl)-2,3-dimethyl-4,5-dihydropyrrolo-[3,4-c]pyrazol-6(2H)-one], the 50% growth inhibitory concentration (GI50) in experiment [1] was found to be 71.1 nM; in experiment [2], 103 nM; in experiment [3], 632 nM.
As for `COc1ncccc1-n1nc(C)c2c1C(=O)N(c1cc(C)c3nnc(C)n3c1)C2c1ccc(Cl)cc1F` (stereo not drawn) [Example 184, 4-(4-chloro-2-fluorophenyl)-5-(3,8-dimethyl-[1,2,4]triazolo[4,3-a]pyridin-6-yl)-1-(2-methoxypyridin-3-yl)-3-methyl-4,5-dihydropyrrolo-[3,4-c]pyrazol-6(1H)-one], the GI50 in experiment [1] amounted to 59.6 nM; in experiment [2] it was 131 nM; in experiment [3] it was 394 nM.
For the molecule `Cn1cc(N2C(=O)c3c(c(C(F)(F)F)nn3C3CC3)C2c2ccc(Cl)cc2)cc(Cl)c1=O` (stereo not drawn) [Example 44, 5-(5-chloro-1-methyl-6-oxo-1,6-dihydropyridin-3-yl)-4-(4-chlorophenyl)-1-cyclopropyl-3-(trifluoromethyl)-4,5-dihydropyrrolo[3,4-c]pyrazol-6(1H)-one], the GI50 in experiment [1] came to 217 nM; in experiment [2] it was 308 nM; in experiment [3] it was 658 nM.
As to `Cc1cc(N2C(=O)c3c(c(C4CC4)nn3C)[C@H]2c2ccc(Cl)cc2)cn2c(C)nnc12` [Example 164, (R)-4-(4-chlorophenyl)-3-cyclopropyl-5-(3,8-dimethyl-[1,2,4]triazolo[4,3-a]pyridin-6-yl)-1-methyl-4,5-dihydropyrrolo-[3,4-c]pyrazol-6(1H)-one], the values for the GI50 in experiment [1], in experiment [2] and in experiment [3] were 7.69 nM, 9.6 nM and 98.2 nM, respectively.
Take `Cc1nn(C2CC2)c2c1[C@@H](c1ccc(Cl)cc1)N(c1cc(C)c(=O)n(C)c1)C2=O` [Example 49, (R)-4-(4-chlorophenyl)-1-cyclopropyl-5-(1,5-dimethyl-6-oxo-1,6-dihydropyridin-3-yl)-3-methyl-4,5-dihydropyrrolo-[3,4-c]pyrazol-6(1H)-one]: the GI50 in experiment [1] amounted to 24.1 nM; in experiment [2], 29 nM; in experiment [3], 120 nM.
For `CNc1cc(N2C(=O)c3c(c(C)nn3C3CC3)[C@H]2c2ccc(Cl)cc2)nn2c(C)nnc12` [Example 161, (R)-4-(4-chlorophenyl)-1-cyclopropyl-3-methyl-5-(3-methyl-8-(methylamino)-[1,2,4]triazolo[4,3-b]pyridazin-6-yl)-4,5-dihydropyrrolo-[3,4-c]pyrazol-6(1H)-one], the values for the GI50 in experiment [1], in experiment [2] and in experiment [3] were 66.1 nM, 78.5 nM and 352 nM, respectively.
Take `CCc1nn(CCOCC(F)(F)F)c2c1C(c1ccc(Cl)cc1)N(c1cc(OC)c3nnc(C)n3c1)C2=O` (stereo not drawn) [Example 108, 4-(4-chlorophenyl)-3-ethyl-5-(8-methoxy-3-methyl-[1,2,4]triazolo[4,3-a]pyridin-6-yl)-1-(2-(2,2,2-trifluoroethoxy)ethyl)-4,5-dihydropyrrolo[3,4-c]pyrazol-6(1H)-one]: the 50% growth inhibitory concentration (GI50) in experiment [1] was found to be 267 nM; in experiment [2], 397 nM; in experiment [3] it was 1510 nM.
`CC(=O)N1CC(n2nc(C)c3c2C(=O)N(c2cc(C)c(=O)n(C)c2)C3c2ccc(Cl)cc2)C1` (stereo not drawn) [Example 153, 1-(1-acetylazetidin-3-yl)-4-(4-chlorophenyl)-5-(1,5-dimethyl-6-oxo-1,6-dihydropyridin-3-yl)-3-methyl-4,5-dihydropyrrolo[3,4-c]pyrazol-6(1H)-one]: the GI50 came out at 115 nM in experiment [1], 229 nM in experiment [2] and 925 nM in experiment [3].
On the same counts, the results for `Cc1nn(-c2cncn2C)c2c1C(c1ccc(Cl)cc1)N(c1cc(C)c(=O)n(C)c1)C2=O` (stereo not drawn) [Example 83, 4-(4-chlorophenyl)-5-(1,5-dimethyl-6-oxo-1,6-dihydropyridin-3-yl)-3-methyl-1-(1-methyl-1H-imidazol-5-yl)-4,5-dihydropyrrolo[3,4-c]pyrazol-6(1H)-one] are 100 nM, 164 nM and 719 nM.
For the molecule `COc1nccc(-n2nc(C)c3c2C(=O)N(c2cc(C)c(=O)n(C)c2)C3c2ccc(Cl)cc2)n1` (stereo not drawn) [Example 59, 4-(4-chlorophenyl)-5-(1,5-dimethyl-6-oxo-1,6-dihydropyridin-3-yl)-1-(2-methoxypyrimidin-4-yl)-3-methyl-4,5-dihydropyrrolo[3,4-c]pyrazol-6(1H)-one], the results for the GI50 in experiment [1], in experiment [2] and in experiment [3] were 220 nM, 317 nM and 1250 nM, respectively.
As to `CNC(=O)n1nc(C)c2c1C(=O)N(c1cc(C)c3nnc(C)n3c1)C2c1ccc(Cl)cc1` (stereo not drawn) [Example 145, 4-(4-chlorophenyl)-5-(3,8-dimethyl-[1,2,4]triazolo[4,3-a]pyridin-6-yl)-N,3-dimethyl-6-oxo-5,6-dihydropyrrolo[3,4-c]pyrazole-1(4H)-carboxamide], the GI50 worked out at 49.9 nM in experiment [1], 176 nM in experiment [2] and 875 nM in experiment [3].
In the case of `COc1ncc(-n2nc3c(c2C(F)(F)F)C(c2ccc(Cl)cc2)N(c2cc(Cl)c(=O)n(C)c2)C3=O)c(OC)n1` (stereo not drawn) [Example 47, 5-(5-chloro-1-methyl-6-oxo-1,6-dihydropyridin-3-yl)-4-(4-chlorophenyl)-2-(2,4-dimethoxypyrimidin-5-yl)-3-(trifluoromethyl)-4,5-dihydropyrrolo[3,4-c]pyrazol-6(2H)-one], the GI50 came to 113 nM in experiment [1], 414 nM in experiment [2] and 709 nM in experiment [3].
For `COc1ncccc1-n1nc(C)c2c1C(=O)N(c1cc(C)c3nnn(C)c3n1)C2c1ccc(Cl)cc1` (stereo not drawn) [Example 109, 4-(4-chlorophenyl)-5-(3,7-dimethyl-3H-[1,2,3]triazolo[4,5-b]pyridin-5-yl)-1-(2-methoxypyridin-3-yl)-3-methyl-4,5-dihydropyrrolo-[3,4-c]pyrazol-6(1H)-one], the values for the GI50 in experiment [1], in experiment [2] and in experiment [3] were 18.6 nM, 39.8 nM and 269 nM, respectively.

In general, GI50 refers to the concentration at which growth is held to half of that of the control.
